Our source for the IC50 values is patent US20260209247A1, “Substituted Tricyclic Compounds” (Lupin Limited, priority 2019, published 2026).

Assay [1] deals with pERK after EGF stimulation in DLD1 cells. Put plainly: ERK phosphorylation assay (alphascreen pERK). Type of assay: cell-based. As to conditions: Homo sapiens, DLD-1, 2 h compound, 200 ng/ml hEGF for 5 minutes, read-out: ERK phosphorylation inhibition IC50. The procedure:
Compounds were tested for their ability to inhibit pERK after EGF stimulation in DLD1 cells. Cells were seeded at 0.2 million cells per well in 96 well cell binding tissue culture plate in 100 μL complete media and were allowed to settle overnight (16 to 20 h). On the following day, cells were treated with various concentrations of test compounds for 2 h followed by stimulation with 200 ng/ml hEGF (diluted in PBS) for 5 minutes. Cells were then washed once with PBS and lysed in freshly prepared lysis buffer (provided with alphascreen surefire ERK1/2 p-T202/Y204 assay kit, cat no: TGRESB10K, Perkin Elmer). Lysis was carried out in plate shaker for 10-15 mins. Lysate was transferred to […] white opti-plate (Perkin Elmer) and alphascreen for pERK was carried out as per manufacturer's instructions. Plate was read after 2 h incubation in plate shaker at […] 300 RPM, 25-28° C. The difference between the unstimulated and stimulated Vehicle control is considered as 100% ERK phosphorylation, and % inhibition of compounds is calculated accordingly.
A general note: In Alpha technology, singlet oxygen from a donor bead excites a nearby acceptor bead.

Assay [2] has as its target T1, protein-protein interaction between hSOS1 and hKRASG12C (Homo sapiens, UniProt Q07889).
T1 construct: GST-hSOS1, 564-1049aa expressed and purified in-house
T1 sequence (Q07889 564-1049): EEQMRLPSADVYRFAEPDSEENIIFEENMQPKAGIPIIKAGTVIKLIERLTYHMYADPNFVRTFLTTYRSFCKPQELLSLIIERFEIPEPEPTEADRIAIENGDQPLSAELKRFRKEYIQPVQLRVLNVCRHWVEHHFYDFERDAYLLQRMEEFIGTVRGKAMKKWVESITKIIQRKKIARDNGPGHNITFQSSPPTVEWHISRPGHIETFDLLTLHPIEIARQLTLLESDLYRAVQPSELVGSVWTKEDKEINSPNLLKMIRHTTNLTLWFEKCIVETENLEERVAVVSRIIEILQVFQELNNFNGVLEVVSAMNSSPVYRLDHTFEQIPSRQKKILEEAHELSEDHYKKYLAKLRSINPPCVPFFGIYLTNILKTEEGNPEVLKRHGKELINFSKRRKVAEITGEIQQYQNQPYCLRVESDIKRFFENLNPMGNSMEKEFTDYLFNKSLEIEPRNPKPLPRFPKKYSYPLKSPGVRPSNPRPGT
Put plainly: KRAS-SOS1 interaction assay (HTRF). As to conditions: GST-hSOS1 564-1049aa, HIS-hKRASG12C, read-out: KRAS-SOS1 Interaction inhibition IC50. Type of assay: binding. The procedure: Interaction assay was conducted to evaluate the ability of the compounds to disrupt the protein-protein interactions between hSOS1 and hKRASG12C. Inhibitory effect of compounds on GST-hSOS1, 564-1049aa expressed and purified in-house and HIS-hKRASG12C (R06-32DH, SignalChem) interaction was assessed using HTRF detection technology in biochemical assay. Compounds were pre-incubated with 10-50 nM working solution of hSOS1 per well of a 384 well plate (Perkin Elmer, Cat #6007290) for 10 min at 20° C. in the assay buffer containing 5 mM HEPES, pH 7.4, 150 mM NaCl, 10 mM EDTA, 1 mM DTT, 0.05% BSA fraction V and 0.0025% Igepal. Reaction was initiated by adding 100-300 nM working solution of hKRASG12C in assay buffer. Total assay volume was 15 μL. Reaction was continued for 30-60 min at 20° C. Then detection solution containing MAb Anti-GST-d2 (#61GSTDLA, Cisbio BioAssays) and MAb Anti-HIS-Tb (#61HISTLA, Cisbio BioAssays), all prepared in HTRF detection buffer (#61DB10RDF, Cisbio BioAssays) was added and further incubated for 30-60 min at 20° C. HTRF signal was recorded in PHERAStar microplate reader. Ratio of signal obtained at 665 nm and 620 nm was used to compute the percent inhibition of compound utilizing the following formula: […]
Background: Time-resolved FRET reads energy transfer from a long-lived donor to a nearby acceptor.

Assay [3] has as its target T2, nucleotide exchange on hKRASG12C mediated by hSOS1 (Homo sapiens, UniProt Q07889).
T2 construct: HIS-hSOS1, 564-1049aa mediated GTP loading onto GST-hKRASG12C; His (N); made in house
T2 sequence (Q07889 564-1049): T1 sequence (Q07889 564-1049)
Nature of the assay: Guanine nucleotide exchange assay (GNEA, HTRF). Type of assay: biochemical. As to conditions: HIS-hSOS1 564-1049aa mediated GTP loading onto GST-hKRASG12C 1-169aa, read-out: Guanine nucleotide exchange inhibition IC50. The procedure:
Example-154: Guanine nucleotide exchange assay (GNEA) GNEA assay was conducted to evaluate the effects of compounds on the nucleotide exchange on hKRASG12C mediated by hSOS1. Inhibitory effect of compounds on HIS-hSOS1, 564-1049aa mediated GTP loading onto GST-hKRASG12C, 1-169aa both expressed and purified in-house was assessed using HTRF detection technology in biochemical assay. Compounds were pre-incubated with hSOS1 working solution containing 10-50 nM hSOS1 and 200 nM EDA-GTP-DY-647P1 (Custom manufactured, Jena Biosciences) per well of a 384 well plate (Perkin Elmer, Cat #6007290) for 10 min at 20° C. in the assay buffer containing 10 mM HEPES, pH 7.4, 150 mM NaCl, 5 mM MgCl2, 1 mM DTT, 0.05% BSA fraction V and 0.0025% Igepal. Reaction was initiated by adding working solution of hKRASG12C containing 25-125 nM hKRASG12C and MAb Anti-GST-Tb (#61GSTTLA, Cisbio BioAssays) in assay buffer. Total assay volume was 15 μL. Reaction was continued for 30-60 min at 20° C. HTRF signal was recorded in PHERAStar microplate reader. Ratio of signal obtained at 665 nm and 620 nm was used to compute the percent inhibition of compound as follows.

As a reminder, the IC50 is the concentration that inhibits the measured activity by half.

For `COC[C@](C)(O)C(F)(F)c1cccc([C@@H](C)Nc2nc(C)nc3cc4c(cc23)N(C)C(=O)C(C)(C)O4)c1F` (racemic) [Compound 53a, 4—(((R)-1-(3-((S/R)-1,1-difluoro-2-hydroxy-3-methoxy-2-methylpropyl)-2-fluorophenyl)ethyl)amino)-2,6,8,8-tetramethyl-6H-[1,4]oxazino[3,2-g]quinazolin-7(8H)-one], the IC50 in assay [1] was 0.001 to 0.2 µM; in assay [2], 0.001 to 0.01 µM; in assay [3], 0.001 to 0.03 µM.
On the same counts, the results for `Cc1nc(N[C@H](C)c2cccc(C(F)(F)C(C)(C)O)c2F)c2cc3c(cc2n1)N(C)C(=O)C3C` (mixture of isomers) [Compound 95, (R&S)-4-(((R)-1-(3-(1,1-difluoro-2-hydroxy-2-methylpropyl)-2-fluorophenyl)ethyl)amino)-2,6,8-trimethyl-6,8-dihydro-7H-pyrrolo[3,2-g]quinazolin-7-one] are 0.001 to 0.2 µM, 0.011 to 0.025 µM and 0.031 to 0.13 µM.
In the case of `CO[C@]1(C)C(=O)N(C)c2cc3nc(C)nc(N[C@H](C)c4cccc(C(F)(F)C(C)(C)O)c4F)c3cc21` (racemic) [Compound 96a, (S/R)-4-(((R)-1-(3-(1,1-difluoro-2-hydroxy-2-methylpropyl)-2-fluorophenyl)ethyl)amino)-6-methoxy-2,6,8-trimethyl-6,8-dihydro-7H-pyrrolo[3,2-g]quinazolin-7-one], the IC50 in assay [1] lay within 0.001 to 0.2 µM; in assay [2], 0.011 to 0.025 µM; in assay [3] it was 0.031 to 0.13 µM.
The corresponding values for `COCC1(C)C(=O)N(C)c2cc3c(N[C@H](C)c4cccc(C(F)(F)C(C)(C)O)c4F)nc(C)nc3cc21` (mixture of isomers) [Compound 98, (R&S)-4-(((R)-1-(3-(1,1-difluoro-2-hydroxy-2-methylpropyl)-2-fluorophenyl)ethyl)amino)-8-(methoxymethyl)-2,6,8-trimethyl-6,8-dihydro-7H-pyrrolo[2,3-g]quinazolin-7-one] are 0.001 to 0.2 µM, 0.011 to 0.025 µM and 0.001 to 0.03 µM.
On the same counts, the results for `COC[C@@]1(C)C(=O)N(C)c2cc3c(N[C@H](C)c4cccc(C(F)(F)C(C)(C)O)c4F)nc(C)nc3cc21` (racemic) [Compound 98b, (S/R)-4-(((R)-1-(3-(1,1-difluoro-2-hydroxy-2-methylpropyl)-2-fluorophenyl)ethyl)amino)-8-(methoxymethyl)-2,6,8-trimethyl-6,8-dihydro-7H-pyrrolo[2,3-g]quinazolin-7-one] are 0.001 to 0.2 µM, 0.011 to 0.025 µM and 0.031 to 0.13 µM.
The corresponding values for `Cc1nc(N[C@H](C)c2cccc(C(F)(F)C(C)(C)O)c2F)c2cc3c(cc2n1)C(C)C(=O)N3C` (mixture of isomers) [Compound 99, (R&S)-4-(((R)-1-(3-(1,1-difluoro-2-hydroxy-2-methylpropyl)-2-fluorophenyl)ethyl)amino)-2,6,8-trimethyl-6,8-dihydro-7H-pyrrolo[2,3-g]quinazolin-7-one] are 0.001 to 0.2 µM, 0.001 to 0.01 µM and 0.001 to 0.03 µM.
As for `CCO[C@]1(C)C(=O)N(C)c2cc3c(N[C@H](C)c4cccc(C(F)(F)C(C)(C)O)c4F)nc(C)nc3cc21` (racemic) [Compound 121b, (S/R)-4-(((R)-1-(3-(1,1-difluoro-2-hydroxy-2-methylpropyl)-2-fluorophenyl)ethyl)amino)-8-ethoxy-2,6,8-trimethyl-6,8-dihydro-7H-pyrrolo[2,3-g]quinazolin-7-one], the figures for the 50% inhibitory concentration (IC50) in assay [1], in assay [2] and in assay [3] were 0.001 to 0.2 µM, 0.001 to 0.01 µM and 0.001 to 0.03 µM, respectively.
On the same counts, the results for `CO[C@]1(C)C(=O)N(C)c2cc3c(N[C@H](C)c4cccc(C(F)(F)[C@](C)(O)CN(C)C)c4F)nc(C)nc3cc21` (racemic) [Compound 135a, (S/R)-4-(((R)-1-(3-((S/R)-3-(dimethylamino)-1,1-difluoro-2-hydroxy-2-methylpropyl)-2-fluorophenyl)ethyl)amino)-8-methoxy-2,6,8-trimethyl-6,8-dihydro-7H-pyrrolo[2,3-g]quinazolin-7-one] are 0.001 to 0.2 µM, 0.001 to 0.01 µM and 0.001 to 0.03 µM.
On the same counts, the results for `CO[C@]1(C)C(=O)N(C)c2cc3c(N[C@H](C)c4cccc(C(F)(F)[C@@](C)(O)CN(C)C)c4F)nc(C)nc3cc21` (racemic) [Compound 135b, (S/R)-4-(((R)-1-(3-((R/S)-3-(dimethylamino)-1,1-difluoro-2-hydroxy-2-methylpropyl)-2-fluorophenyl)ethyl)amino)-8-methoxy-2,6,8-trimethyl-6,8-dihydro-7H-pyrrolo[2,3-g]quinazolin-7-one] are 0.001 to 0.2 µM, 0.001 to 0.01 µM and 0.031 to 0.13 µM.
For `Cc1nc(N[C@H](C)c2cccc(C(F)(F)[C@@](C)(O)CO)c2F)c2cc3c(cc2n1)OC(C)(C)C(=O)N3C` (single isomer, unassigned) [Compound 23a, 4-(((R/S)-1-(3-((S/R)-1,1-difluoro-2,3-dihydroxy-2-methylpropyl)-2-fluorophenyl)ethyl)amino)-2,6,8,8-tetramethyl-6H-[1,4]oxazino[3,2-g]quinazolin-7(8H)-one], the IC50 was in the range of 0.001 to 0.2 µM in assay [1], 0.001 to 0.01 µM in assay [2] and 0.001 to 0.03 µM in assay [3].
Regarding `Cc1nc(N[C@H](C)c2cccc(C(F)(F)C(C)(C)O)c2F)c2cc3c(cc2n1)N(C)C(C)C(=O)N3C` (single isomer, unassigned) [Compound 27b], the IC50 was in the range of 0.001 to 0.2 µM in assay [1], 0.001 to 0.01 µM in assay [2] and 0.001 to 0.03 µM in assay [3].
As to `Cc1nc(N[C@H](C)c2cccc(C(F)(F)CO)c2F)c2cc3c(cc2n1)O[C@@H](C)C(=O)N3C` (single isomer, unassigned) [Compound 30a], the IC50 was 0.001 to 0.2 µM in assay [1], 0.001 to 0.01 µM in assay [2] and 0.001 to 0.03 µM in assay [3].
As to `Cc1nc(N[C@H](C)c2cccc(C(F)(F)CO)c2F)c2cc3c(cc2n1)OC(C)C(=O)N3C` (single isomer, unassigned) [Compound 30b], the IC50 in assay [1] fell in the range of 0.001 to 0.2 µM; in assay [2] it was 0.001 to 0.01 µM; in assay [3] it was 0.001 to 0.03 µM.
On the same counts, the results for `Cc1nc(N[C@H](C)c2cccc(C(F)(F)C(C)(C)O)c2F)c2cc3c(cc2n1)O[C@@H](C)C(=O)N3C` (single isomer, unassigned) [Compound 31a] are 0.001 to 0.2 µM, 0.001 to 0.01 µM and 0.001 to 0.03 µM.
